For 8 molecules, viability, T/C and IC50 results are on record in PubChem BioAssay AID2060894 (Molecular Pharmacology Branch, DTP, NCI, 2025).

The subject of the assay is K12877-001-R-J1-PDC complex spheroid viability. Briefly: Anticancer human tumor K12877-001-R-J1-PDC patient-derived lung adenocarcinoma cell line growth inhibition [RAS]. To be noted: for viability, T/C: stronger effect = lower value. An excerpt: RAS pathway inhibitors in Combinations in Complex Spheroids
A high-throughput screen of multi-cell type tumor spheroids was designed to identify active combinations of RAS pathway inhibitors and targeted small molecules. Complex spheroids include a stromal component modeled by human endothelial cells (HUVEC) and fibroblasts modeled by human mesenchymal stem cells (MSCs). The concentration ranges selected for each drug and investigational agent were based upon clinically achievable concentrations if the clinical Cmax of the agent was known.
Compounds. The drugs and investigational agents: abemaciclib (NSC768073), cobimetinib (NSC768068), divarasib (GDC6063, NSC841802), docetaxel (NSC628503), GDC-1971 (RLY-1971, NSC841576), gemcitabine (NSC613327), inavolisib (NSC800729), ipatasertib (NSC767898), KB-0742 (NSC834161), MRTX-1133 (NSC836407), osimertinib (NSC779217), RMC-4630 (NSC839698), RMC-6236 (NSC851965), RMC-6291 (NSC852671), Ro-3306 (NSC812927), sapanisertib (NSC764658), SN-38 (NSC673596), staurosporine (NSC755774), SY5609 (NSC837396), and tovorafenib (DAY101, NSC766906), were obtained from the National Cancer Institute (NCI) Developmental Therapeutics Program Chemical Repository. The FDA-approved anticancer drug set is available from the NCI Developmental Therapeutics Program. […] The stock solutions were prepared in dimethyl sulfoxide (DMSO, Sigma-Aldrich, St. Louis, MO, cat. D2650) at 800-fold the tested concentration and stored at -70 degrees C prior to their use. All drugs and investigational agents were tested over a range starting from a high concentration at or near the clinical Cmax and decreasing in half-log increments. If the clinical Cmax for an agent had not been determined, the highest concentration tested was 10 microM.
Cell Culture. All cells were maintained in an incubator at 37 degrees C and 5% CO2 with 95% humidity. The PDC lines were cultured according to standard operating procedures established by the NCI PDMR. All PDCs were thawed and cultured in Matrigel-coated flasks prepared with a working solution of 1X Ham's F-12 nutrient mix, without supplementation (Invitrogen, Waltham, MA, cat. 11765054), 100 U/mL penicillin-streptomycin (Invitrogen, cat. 15140122), and 2.5% Matrigel (Corning Inc., Corning, NY, cat. 354248) for the first three passages. The 362531-283-R-J2-PDC and 782815-120-R-J1-PDC lines were cultured in 6C/Colon 1B media, which includes advanced DMEM/F-12 (Thermo Fisher Scientific, cat. 12634028), 10 mM HEPES (Thermo Fisher Scientific, cat. 15630080), 1X GlutaMAX supplement (Thermo Fisher Scientific, cat. 35050061), 0.1 mg/mL primocin (InvivoGen, San Diego, CA, cat. ant-pm-2), 10% defined fetal bovine serum, heat inactivated (HyClone Laboratories Inc., Logan, UT, cat. SH30070.03HI), 50% L-WRN conditioned media (ATCC, cat. CRL-3276), 1.25 mM N-Acetyl-L-cysteine (Sigma-Aldrich, cat. A9165), 10 mM nicotinamide (Sigma-Aldrich, cat. N0636), 1X B-27 supplement (Thermo Fisher Scientific, cat. 17504044), 1X N-2 supplement (Thermo Fisher Scientific, cat. 17502048), 50 ng/mL human EGF (Thermo Fisher Scientific, cat. PHG0311), and 10 microM Y-27632 dihydrochloride (Tocris Bioscience, cat. 1254). The K12877-001-R-J1-PDC line was cultured in 6I media, which includes all 6C/Colon 1B media plus 10 ng/mL human FGF-10 (PeproTech, cat. 100-26), 1 ng/mL human FGF-2 (PeproTech, cat. 100-18B), 1 µM prostaglandin E2 (Tocris Bioscience, cat. 2296), […] hydrocortisone (Sigma-Aldrich, cat. H4001), and […] bovine insulin (Sigma-Aldrich, cat. I6634). The K86415-001-R-J1-PDC line was cultured in 6D media, which includes all 6C/Colon 1B media components minus the L-WRN conditioned media. The 485176-168-R4-J1-PDC was cultured in PANC media, which includes all 6C/Colon 1B media plus 100 ng/mL human FGF-10 (PeproTech, cat. 100-26), 500 nM SB-431542 (Selleckchem, cat. S1067), and 10 nM gastrin (Tocris Bioscience, cat. 3006). […]

“And” between values parts separate entries of the source, which are not always exact repeats. Equal entries are not always repeated. Bounds are passed on as bounds.
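Further: spheroids exposed to agents for one week before readout.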

By viability, T/C is commonly meant the result in the treated group divided by that in the control group, in per cent. Broadly, the IC50 is the concentration at which inhibition is half-maximal. For `C=CC(=O)N1CCN(c2nc(OCC3CCCN3C)nc3c(F)c(-c4nc(N)cc(C)c4C(F)(F)F)c(Cl)cc23)C(C)C1` (configuration not stated), the viability, T/C runs as follows: (compound 0.00316 µM) 99.2% [middle of 12 runs]; (compound 0.1 µM) 87.8% [middle of 12 runs]; (compound 0.316 µM) 86% [middle of 12 runs]. For the same molecule, the IC50 by setting is: (compound alone, run of 09/09/2024) over 1000 nM; (curve of compound) over 1000 nM.
Consider `C=CC(=O)Nc1cc(Nc2nccc(-c3cn(C)c4ccccc34)n2)c(OC)cc1N(C)CCN(C)C`, for which the viability, T/C is, setting by setting: (compound 0.00316 µM) 108% [middle of 4 runs]; (compound 0.01 µM) 106% [middle of 4 runs]; (compound 0.0316 µM) 106% [middle of 4 runs]; (compound 0.1 µM) 101% [middle of 4 runs]; (compound 0.316 µM) 103% [middle of 4 runs]; (compound 1 µM) 90.8% [middle of 4 runs]. Further, the IC50 (curve of compound) was over 1000 nM.
On to `CC(C)n1nc(-c2ccc3oc(N)nc3c2)c2c(N)ncnc21`, for which the viability, T/C runs as follows: (compound 0.000316 µM) 105% [middle of 4 runs]; (compound 0.00316 µM) 98.2% [middle of 4 runs]; (compound 0.0316 µM) 41.3% [middle of 4 runs]; (compound 0.1 µM) 15.5% and 26.6% (2×) and 20%. Further, under “curve of compound”, the IC50 was 25.1 nM [middle of 4 runs].
In the case of `CC1(C)CCC(Nc2ncc(C(F)(F)F)c(-c3c[nH]c4c(P(C)(C)=O)c(C#N)ccc34)n2)CN1` (configuration not stated), the viability, T/C is, setting by setting: (compound 0.000949 µM) 102% [middle of 4 runs]; (compound 0.03 µM) 44.5% [middle of 4 runs]; (compound 0.0949 µM) 33% [middle of 4 runs]; (compound 0.3 µM) 28.3% [middle of 4 runs]. The IC50 (curve of compound) was 27.1 nM [middle of 4 runs].
Regarding `CCc1c2c(nc3ccc(O)cc13)-c1cc3c(c(=O)n1C2)COC(=O)[C@]3(O)CC`, the viability, T/C is 99.2% [middle of 4 runs] (compound 0.000949 µM); 14% [middle of 4 runs] (compound 0.00949 µM); 5.09% [middle of 4 runs] (compound 0.03 µM); 3.24% [middle of 4 runs] (compound 0.0949 µM); 1.19% [middle of 4 runs] (compound 0.3 µM). The IC50 (curve of compound) is 5.02 nM [middle of 4 runs].
Take `CCn1c(-c2cc(N3CCN(C)CC3)cnc2C(C)OC)c2c3cc(ccc31)-c1csc(n1)CC(NC(=O)C1CC1C)C(=O)N1CCCC(N1)C(=O)OCC(C)(C)C2` (configuration not stated): the viability, T/C reads like this: (compound 0.000949 µM) 81.8% [middle of 8 runs]; (compound 0.003 µM) 72.1% [middle of 8 runs]; (compound 0.00949 µM) 67.8% [middle of 8 runs]; (compound 0.0949 µM) 107% [middle of 8 runs]; (compound 0.3 µM) 97.1% [middle of 7 runs]. Moreover, the IC50 (compound alone, run of 08/26/2024) was over 300 nM.
In the case of `CCn1c(-c2cccnc2C(C)OC)c2c3cc(ccc31)N1CCOC(CC(NC(=O)C(C(C)C)N(C)C(=O)C3(F)CCN(C(=O)C#CC(C)(C)N(C)C)CC3)C(=O)N3CCCC(N3)C(=O)OCC(C)(C)C2)C1` (configuration not stated), the viability, T/C by setting is: (compound 0.000949 µM) 86.3% [middle of 8 runs]; (compound 0.003 µM) 81.2% [middle of 8 runs]; (compound 0.00949 µM) 79.2% [middle of 8 runs]; (compound 0.03 µM) 79% [middle of 8 runs]; (compound 0.0949 µM) 72.1% [middle of 8 runs]; (compound 0.3 µM) 72.7% [middle of 8 runs]. Further, under “compound alone, run of 08/20/2024”, the IC50 is over 300 nM.
In the case of `O=C(c1ccc(F)c(F)c1Nc1ccc(I)cc1F)N1CC(O)([C@@H]2CCCCN2)C1`, the viability, T/C runs as follows: (compound 0.00316 µM) 109% [middle of 4 runs]; (compound 0.01 µM) 93.5% [middle of 4 runs]; (compound 0.0316 µM) 94.9% [middle of 4 runs]; (compound 0.1 µM) 81.3% [middle of 4 runs]; (compound 0.316 µM) 81.6% [middle of 4 runs]. Besides, where the note is “curve of compound”, the IC50 is > 1000 nM and 496 nM.
